This passage reports Kd results from publication PMC3274592 (Archives of Biochemistry and Biophysics, 2011).

Experiment [1] has as its target CYP158A1 (Streptomyces coelicolor, UniProt Q9KZF5, K90I). The experiment is described as follows: UV-vis difference spectral titration. It counts as binding.
Experiment [2] deals with CYP158A1 (Streptomyces coelicolor, UniProt Q9KZF5). As to the kind of experiment: UV-vis difference spectral titration. It counts as binding.
CYP158A1 (Streptomyces coelicolor, UniProt Q9KZF5), sequence (Q9KZF5 whole entry): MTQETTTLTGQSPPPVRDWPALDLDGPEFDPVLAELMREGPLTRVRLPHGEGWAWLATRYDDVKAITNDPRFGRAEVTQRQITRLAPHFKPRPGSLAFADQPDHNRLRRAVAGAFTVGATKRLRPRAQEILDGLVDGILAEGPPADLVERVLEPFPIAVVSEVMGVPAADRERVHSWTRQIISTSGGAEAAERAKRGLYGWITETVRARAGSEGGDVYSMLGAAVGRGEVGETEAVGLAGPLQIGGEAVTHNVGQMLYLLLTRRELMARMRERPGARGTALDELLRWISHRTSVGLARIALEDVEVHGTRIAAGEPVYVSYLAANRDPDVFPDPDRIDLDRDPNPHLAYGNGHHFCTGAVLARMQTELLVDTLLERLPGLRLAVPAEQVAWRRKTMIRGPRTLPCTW

CYP158A1 (Streptomyces coelicolor, UniProt Q9KZF5, K90I), sequence (Q9KZF5 whole entry K90I): as the sequence (Q9KZF5 whole entry) above, with K90I counted along it

With `O=C1C(O)=CC(=O)c2c(O)cc(O)cc21` [flaviolin], the Kd on CYP158A1 [1] came out at 16.9 µM; at CYP158A1 [2] it was 10.5 µM.

In general, Kd refers to the concentration at which binding is half-saturated. Low values mean tighter binding, high ones weaker binding.
